Structures are written as SMILES. ≈ marks a conversion by molar mass, not a printed value. Where “and” joins values, the source holds several entries; their conditions need not be identical. Equal values may be shown once.

For this assay, the system named is SARS-CoV-2. In words: Virus neutralization (VN) assay, scoring of SARS-CoV-2 cytopathic effects (CPE) in Vero E6 cells. Format: cell-based. (Damage to the host cells serves as the signal in cytopathic effect assays.)

Consider `O=C1CN(/N=C/c2ccc(-c3ccc([N+](=O)[O-])cc3)o2)C(O)=N1` [dantrolene], for which the CPE observed result is “no CPE was observed”; the “Day 4 Read (CPE in wells)” value was 3/3 wells had No CPE and 2/3 wells had >90% and 1/3 wells had >90% and 3/3 wells had >90% and 3/3 wells had sparce; the “Day 6 Read (CPE in wells)” value is 3/3 wells had No CPE and 2/3 wells had >90% and 1/3 wells had >90% and 3/3 wells had >90% and 3/3 wells had sparce; the anti-viral activity entry is recorded as “showed anti-viral activity”. Besides, the “cytopathic effects (indicating virus growth)” value was “No cytopathic effects”. In addition, the MIC (Severe acute respiratory syndrome coronavirus 2, read-out: minimum inhibitory concentration) was 20 µM (≈ 6.29 µg/mL).
